Results as given in patent publication US6706740B2, “Fungicidal heterocyclic aromatic amides and their compositions, methods of use and preparation” (Dow AgroSciences LLC, priority 1999, dated 2004).

test system: Puccinia recondita—PUCCRT; experiment: Brown Rust of Wheat, in vivo whole plant, 24 Hour Protectant; conditions: Puccinia; 100 ppm spray, 24 hour protectant, wheat; control of fungal infection vs untreated plants; read-out: PUCCRT in vivo 1 Day Protectant

Row | Structure (SMILES) | pest or weed control at 100 ppm [%]
1 | COc1ccnc(C(=O)N[C@@H]2CC3CC2[C@@H](c2ccccc2)[C@@H]3C(=O)OC(C)C)c1O (some centres unmarked) [Compound 300] | < 25
2 | COc1ccnc(C(=O)N[C@H]2CC3CC2C[C@@H]3COCc2cccc(C(F)(F)F)c2)c1O (some centres unmarked) [Compound 296] | < 25
3 | COc1ccnc(C(=O)NC2CCC[C@H]3[C@H]4CC[C@H](C4)[C@@H]23)c1O (some centres unmarked) [Compound 291] | < 25
4 | COc1ccnc(C(=O)NCC(C)(C)Sc2ncc(C(F)(F)F)cc2Cl)c1O [Compound 244] | < 25
5 | COc1ccnc(C(=O)N[C@H]2CC3CC2[C@H](COCc2cccc(C(F)(F)F)c2)C3)c1O (some centres unmarked) [Compound 294] | < 25

test system: Ustilago maydis (USTIMA); experiment: microbe, parasite or virus in culture; assay type: cell-based; conditions: Mycosarcoma maydis, read-out: USTIMA in vitro Growth Inhibition

Row | Structure (SMILES) | inhibition at 25 ppm [%]
6 | COc1ccnc(C(=O)N[C@@H]2CC3CC2[C@@H](c2ccccc2)[C@@H]3C(=O)OC(C)C)c1O (some centres unmarked) [Compound 300] | < 80
7 | COc1ccnc(C(=O)N[C@H]2CC3CC2C[C@@H]3COCc2cccc(C(F)(F)F)c2)c1O (some centres unmarked) [Compound 296] | < 80
8 | COc1ccnc(C(=O)NC2CCC[C@H]3[C@H]4CC[C@H](C4)[C@@H]23)c1O (some centres unmarked) [Compound 291] | < 80
9 | COc1ccnc(C(=O)NCC(C)(C)Sc2ncc(C(F)(F)F)cc2Cl)c1O [Compound 244] | < 80
10 | COc1ccnc(C(=O)N[C@H]2CC3CC2[C@H](COCc2cccc(C(F)(F)F)c2)C3)c1O (some centres unmarked) [Compound 294] | < 80

test system: Mycosphaerella graminicola (Septoria tritici—SEPTTR); experiment: In vitro fungal growth inhibition, Mycosphaerella graminicola (SEPTTR); assay type: cell-based; conditions: Zymoseptoria tritici; 25 ppm in growth medium; read-out: SEPTTR in vitro Growth Inhibition

Row | Structure (SMILES) | inhibition at 25 ppm [%]
11 | COc1ccnc(C(=O)N[C@@H]2CC3CC2[C@@H](c2ccccc2)[C@@H]3C(=O)OC(C)C)c1O (some centres unmarked) [Compound 300] | < 80
12 | COc1ccnc(C(=O)N[C@H]2CC3CC2C[C@@H]3COCc2cccc(C(F)(F)F)c2)c1O (some centres unmarked) [Compound 296] | < 80
13 | COc1ccnc(C(=O)NC2CCC[C@H]3[C@H]4CC[C@H](C4)[C@@H]23)c1O (some centres unmarked) [Compound 291] | < 80
14 | COc1ccnc(C(=O)NCC(C)(C)Sc2ncc(C(F)(F)F)cc2Cl)c1O [Compound 244] | > 80
15 | COc1ccnc(C(=O)N[C@H]2CC3CC2[C@H](COCc2cccc(C(F)(F)F)c2)C3)c1O (some centres unmarked) [Compound 294] | > 80

test system: Leptosphaeria nodorum—LEPTNO; experiment: Glume Blotch of Wheat, in vivo whole plant, 24 Hour Protectant; conditions: 100 ppm spray, 24 hour protectant, wheat; control of fungal infection vs untreated plants

Row | Structure (SMILES) | LEPTNO in vivo 1 Day Protectant
16 | COc1ccnc(C(=O)N[C@H]2CC3CC2[C@H](COCc2cccc(C(F)(F)F)c2)C3)c1O (some centres unmarked) [Compound 294] | + +

same assay, conditions: Leptosphaeria; 100 ppm spray, 24 hour protectant, wheat; control of fungal infection vs untreated plants; read-out: LEPTNO in vivo 1 Day Protectant

Row | Structure (SMILES) | pest or weed control at 100 ppm [%]
17 | COc1ccnc(C(=O)N[C@@H]2CC3CC2[C@@H](c2ccccc2)[C@@H]3C(=O)OC(C)C)c1O (some centres unmarked) [Compound 300] | 25 to 74
18 | COc1ccnc(C(=O)N[C@H]2CC3CC2C[C@@H]3COCc2cccc(C(F)(F)F)c2)c1O (some centres unmarked) [Compound 296] | 25 to 74
19 | COc1ccnc(C(=O)NC2CCC[C@H]3[C@H]4CC[C@H](C4)[C@@H]23)c1O (some centres unmarked) [Compound 291] | 25 to 74
20 | COc1ccnc(C(=O)NCC(C)(C)Sc2ncc(C(F)(F)F)cc2Cl)c1O [Compound 244] | 25 to 74

test system: Phytophthora infestans (PHYTIN); experiment: microbe, parasite or virus in culture; assay type: cell-based; conditions: Phytophthora infestans, read-out: PHYTIN in vitro Growth Inhibition

Row | Structure (SMILES) | inhibition at 25 ppm [%]
21 | COc1ccnc(C(=O)N[C@@H]2CC3CC2[C@@H](c2ccccc2)[C@@H]3C(=O)OC(C)C)c1O (some centres unmarked) [Compound 300] | < 80
22 | COc1ccnc(C(=O)N[C@H]2CC3CC2C[C@@H]3COCc2cccc(C(F)(F)F)c2)c1O (some centres unmarked) [Compound 296] | < 80
23 | COc1ccnc(C(=O)NC2CCC[C@H]3[C@H]4CC[C@H](C4)[C@@H]23)c1O (some centres unmarked) [Compound 291] | < 80
24 | COc1ccnc(C(=O)NCC(C)(C)Sc2ncc(C(F)(F)F)cc2Cl)c1O [Compound 244] | < 80
25 | COc1ccnc(C(=O)N[C@H]2CC3CC2[C@H](COCc2cccc(C(F)(F)F)c2)C3)c1O (some centres unmarked) [Compound 294] | < 80

test system: Erysiphe graminis—ERYSGT; experiment: Powdery Mildew of Wheat, in vivo whole plant, 24 Hour Protectant; conditions: Erysiphe; 100 ppm spray, 24 hour protectant, wheat; control of fungal infection vs untreated plants; read-out: ERYSGT in vivo 1 Day Protectant

Row | Structure (SMILES) | pest or weed control at 100 ppm [%]
26 | COc1ccnc(C(=O)N[C@@H]2CC3CC2[C@@H](c2ccccc2)[C@@H]3C(=O)OC(C)C)c1O (some centres unmarked) [Compound 300] | < 25
27 | COc1ccnc(C(=O)N[C@H]2CC3CC2C[C@@H]3COCc2cccc(C(F)(F)F)c2)c1O (some centres unmarked) [Compound 296] | < 25
28 | COc1ccnc(C(=O)NC2CCC[C@H]3[C@H]4CC[C@H](C4)[C@@H]23)c1O (some centres unmarked) [Compound 291] | < 25
29 | COc1ccnc(C(=O)NCC(C)(C)Sc2ncc(C(F)(F)F)cc2Cl)c1O [Compound 244] | < 25
30 | COc1ccnc(C(=O)N[C@H]2CC3CC2[C@H](COCc2cccc(C(F)(F)F)c2)C3)c1O (some centres unmarked) [Compound 294] | < 25

test system: Phytophthora infestans—PHYTIN; experiment: whole plant or invertebrate; assay type: in vivo; conditions: Phytophthora, in Solanum lycopersicum, 24 h, read-out: PHYTIN in vivo 1 Day Protectant

Row | Structure (SMILES) | pest or weed control at 100 ppm [%]
31 | COc1ccnc(C(=O)N[C@@H]2CC3CC2[C@@H](c2ccccc2)[C@@H]3C(=O)OC(C)C)c1O (some centres unmarked) [Compound 300] | < 25
32 | COc1ccnc(C(=O)N[C@H]2CC3CC2C[C@@H]3COCc2cccc(C(F)(F)F)c2)c1O (some centres unmarked) [Compound 296] | < 25
33 | COc1ccnc(C(=O)NC2CCC[C@H]3[C@H]4CC[C@H](C4)[C@@H]23)c1O (some centres unmarked) [Compound 291] | < 25
34 | COc1ccnc(C(=O)NCC(C)(C)Sc2ncc(C(F)(F)F)cc2Cl)c1O [Compound 244] | < 25
35 | COc1ccnc(C(=O)N[C@H]2CC3CC2[C@H](COCc2cccc(C(F)(F)F)c2)C3)c1O (some centres unmarked) [Compound 294] | < 25

test system: Magnaporthe grisea (Pyricularia oryzae—PYRIOR); experiment: microbe, parasite or virus in culture; assay type: cell-based; conditions: Pyricularia oryzae, read-out: PYRIOR in vitro Growth Inhibition

Row | Structure (SMILES) | inhibition at 25 ppm [%]
36 | COc1ccnc(C(=O)N[C@@H]2CC3CC2[C@@H](c2ccccc2)[C@@H]3C(=O)OC(C)C)c1O (some centres unmarked) [Compound 300] | < 80
37 | COc1ccnc(C(=O)N[C@H]2CC3CC2C[C@@H]3COCc2cccc(C(F)(F)F)c2)c1O (some centres unmarked) [Compound 296] | > 80
38 | COc1ccnc(C(=O)NC2CCC[C@H]3[C@H]4CC[C@H](C4)[C@@H]23)c1O (some centres unmarked) [Compound 291] | < 80
39 | COc1ccnc(C(=O)NCC(C)(C)Sc2ncc(C(F)(F)F)cc2Cl)c1O [Compound 244] | > 80
40 | COc1ccnc(C(=O)N[C@H]2CC3CC2[C@H](COCc2cccc(C(F)(F)F)c2)C3)c1O (some centres unmarked) [Compound 294] | > 80

test system: Stagonospora nodorum (Leptosphaeria nodorum—LEPTNO); experiment: In vitro fungal growth inhibition, Stagonospora nodorum (LEPTNO); assay type: cell-based; conditions: Leptosphaeria; 25 ppm in growth medium; read-out: LEPTNO in vitro Growth Inhibition

Row | Structure (SMILES) | inhibition at 25 ppm [%]
41 | COc1ccnc(C(=O)N[C@@H]2CC3CC2[C@@H](c2ccccc2)[C@@H]3C(=O)OC(C)C)c1O (some centres unmarked) [Compound 300] | > 80
42 | COc1ccnc(C(=O)N[C@H]2CC3CC2C[C@@H]3COCc2cccc(C(F)(F)F)c2)c1O (some centres unmarked) [Compound 296] | > 80
43 | COc1ccnc(C(=O)NC2CCC[C@H]3[C@H]4CC[C@H](C4)[C@@H]23)c1O (some centres unmarked) [Compound 291] | > 80
44 | COc1ccnc(C(=O)NCC(C)(C)Sc2ncc(C(F)(F)F)cc2Cl)c1O [Compound 244] | > 80
45 | COc1ccnc(C(=O)N[C@H]2CC3CC2[C@H](COCc2cccc(C(F)(F)F)c2)C3)c1O (some centres unmarked) [Compound 294] | > 80

test system: Rhizoctonia solani (RHIZSO); experiment: microbe, parasite or virus in culture; assay type: cell-based; conditions: Rhizoctonia solani, read-out: RHIZSO in vitro Growth Inhibition

Row | Structure (SMILES) | inhibition at 25 ppm [%]
46 | COc1ccnc(C(=O)N[C@@H]2CC3CC2[C@@H](c2ccccc2)[C@@H]3C(=O)OC(C)C)c1O (some centres unmarked) [Compound 300] | > 80
47 | COc1ccnc(C(=O)N[C@H]2CC3CC2C[C@@H]3COCc2cccc(C(F)(F)F)c2)c1O (some centres unmarked) [Compound 296] | > 80
48 | COc1ccnc(C(=O)NC2CCC[C@H]3[C@H]4CC[C@H](C4)[C@@H]23)c1O (some centres unmarked) [Compound 291] | > 80
49 | COc1ccnc(C(=O)NCC(C)(C)Sc2ncc(C(F)(F)F)cc2Cl)c1O [Compound 244] | < 80
50 | COc1ccnc(C(=O)N[C@H]2CC3CC2[C@H](COCc2cccc(C(F)(F)F)c2)C3)c1O (some centres unmarked) [Compound 294] | > 80
